The values that follow come from patent publication US20250250302A1, “SYNTHESIS OF SELF-ASSEMBLING ARTIFICIAL PROTEINS UTILIZING A HOST-GUEST SYSTEM AND USES THEREOF” (Indian Institute of Science Education and Research, Pune …, priority 2024, published 2025).

This series in a line: solubility test of α, β, and γcyclodextrin in water. The conditions noted are these: compared with β cyclodextrin.

For `OC[C@H]1O[C@@H]2O[C@H]3[C@H](O)[C@@H](O)[C@@H](O[C@H]4[C@H](O)[C@@H](O)[C@@H](O[C@H]5[C@H](O)[C@@H](O)[C@@H](O[C@H]6[C@H](O)[C@@H](O)[C@@H](O[C@H]7[C@H](O)[C@@H](O)[C@@H](O[C@H]1[C@H](O)[C@H]2O)O[C@@H]7CO)O[C@@H]6CO)O[C@@H]5CO)O[C@@H]4CO)O[C@@H]3CO` [a], the solubility in water result is given as “better solubility in water compared to β cyclodextrin”.
